{"source": "PubChem BioAssay AID1259411", "about": "(Chemical Carcinogenesis Research Information System (CCRIS), 2018)", "tested_on": "rodent carcinogenicity bioassays, tumor incidence", "experiment": "CCRIS carcinogenicity studies", "details": "Dose: 0", "method_in_brief": "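NCI-built, expert-reviewed records of carcinogenicity and related test outcomes (mutagenicity, tumor promotion/inhibition) compiled from published and report sources, historical span 1985-2011, not updated.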", "note": "Activity calls are given as the source filed them. The rule behind the calls is not given here.", "data": [{"smiles": "O=C(O)C(Cl)(Cl)Cl", "values": [{"measurement": "carcinogen call", "setting": "Species: MOUSE, Strain/Sex: B6C3F1/FEMALE, Route: INTRAPERITONEAL, 1000 NMOL TOTAL DOSE, 1/3 AND 2/3 OF THE TOTAL DOSE ADMINISTERED AT 8 AND 15 DAYS OF AGE RESPECTIVELY, ANIMALS TERMIN", "result": "inactive; negative"}, {"measurement": "carcinogen call", "setting": "Species: MOUSE, Strain/Sex: B6C3F1/FEMALE, Route: INTRAPERITONEAL, 2000 NMOL TOTAL DOSE, 3/7 AND 4/7 OF THE TOTAL DOSE ADMINISTERED AT 8 AND 15 DAYS OF AGE RESPECTIVELY, ANIMALS TERMIN", "result": "inactive; negative"}, {"measurement": "carcinogen call", "setting": "Species: MOUSE, Strain/Sex: B6C3F1/FEMALE, Route: ORAL, 2, 6.67, 20 MMOL/L IN DRINKING WATER FOR 360 D (STUDY DURATION: 360 D), 2, 6.67, 20 MMOL/L IN DRINKING WATER FOR 360 D (STUDY DURATION: 360 D), Tumor Site: Type of Lesion: LIVER: CARCINOMA", "result": "active; positive"}, {"measurement": "carcinogen call", "setting": "Species: MOUSE, Strain/Sex: B6C3F1/FEMALE, Route: ORAL, 2, 6.67, 20 MMOL/L IN DRINKING WATER FOR 576 D (STUDY DURATION: 576 D), 2, 6.67, 20 MMOL/L IN DRINKING WATER FOR 576 D (STUDY DURATION: 576 D), Tumor Site: Type of Lesion: LIVER: ADENOMA, CARCINOMA", "result": "active; positive"}, {"measurement": "carcinogen call", "setting": "Species: MOUSE, Strain/Sex: B6C3F1/MALE, Route: INTRAPERITONEAL, 1000 NMOL TOTAL DOSE, 1/3 AND 2/3 OF THE TOTAL DOSE ADMINISTERED AT 8 AND 15 DAYS OF AGE RESPECTIVELY, ANIMALS TERMIN", "result": "inactive; negative"}, {"measurement": "carcinogen call", "setting": "Species: MOUSE, Strain/Sex: B6C3F1/MALE, Route: INTRAPERITONEAL, 2000 NMOL TOTAL DOSE, 3/7 AND 4/7 OF THE TOTAL DOSE ADMINISTERED AT 8 AND 15 DAYS OF AGE RESPECTIVELY, ANIMALS TERMIN", "result": "inactive; negative"}, {"measurement": "carcinogen call", "setting": "Species: MOUSE, Strain/Sex: B6C3F1/MALE, Route: ORAL, 1, 2 G/L IN DRINKING WATER FOR 52 WK (STUDY DURATION: 52 WK), 1, 2 G/L IN DRINKING WATER FOR 52 WK (STUDY DURATION: 52 WK), Tumor Site: Type of Lesion: LIVER: ADENOMA OR HEPATOCELLULAR CARCINOMA", "result": "active; positive"}, {"measurement": "carcinogen call", "setting": "Species: MOUSE, Strain/Sex: B6C3F1/MALE, Route: ORAL, 5 G/L (0; 31 MILLIMOLAR) IN DRINKING WATER FOR 61 WK (STUDY DURATION: 61 WK), 5 G/L (0; 31 MILLIMOLAR) IN DRINKING WATER FOR 61 WK (STUDY DURATION: 61 WK), Tumor Site: Type of Lesion: LIVER: CARCINOMA", "result": "active; positive"}, {"measurement": "carcinogen call", "setting": "Species: RAT, Strain/Sex: F344/MALE, Route: ORAL, 0.05, 0.5, 5 G/L IN DRINKING WATER FOR 104 WK (STUDY DURATION: 104 WK), 0.05, 0.5, 5 G/L IN DRINKING WATER FOR 104 WK (STUDY DURATION: 104 WK)", "result": "inactive; negative"}]}, {"smiles": "NC(=O)c1ccccc1C(N)=O", "values": [{"measurement": "carcinogen call", "setting": "Species: MOUSE, Strain/Sex: B6C3F1/FEMALE, Route: ORAL, 6200, 12500, 25000 PPM IN DIET FOR 103-105 WK, 6200, 12500, 25000 PPM IN DIET FOR 103-105 WK", "result": "inactive; negative"}, {"measurement": "carcinogen call", "setting": "Species: MOUSE, Strain/Sex: B6C3F1/MALE, Route: ORAL, 25000, 50000 PPM IN DIET FOR 105 WK, 25000, 50000 PPM IN DIET FOR 105 WK", "result": "inactive; negative"}, {"measurement": "carcinogen call", "setting": "Species: RAT, Strain/Sex: F344/FEMALE, Route: ORAL, 5000, 10000 PPM IN DIET FOR 106 WK, 5000, 10000 PPM IN DIET FOR 106 WK", "result": "inactive; negative"}, {"measurement": "carcinogen call", "setting": "Species: RAT, Strain/Sex: F344/MALE, Route: ORAL, 15000, 30000 PPM IN DIET FOR 106 WK, 15000, 30000 PPM IN DIET FOR 106 WK", "result": "inactive; negative"}]}, {"smiles": "OC[C@H]1O[C@H](O[C@]2(CCl)O[C@H](CCl)[C@@H](O)[C@@H]2O)[C@H](O)[C@@H](O)[C@H]1Cl", "values": [{"measurement": "carcinogen call", "setting": "Species: MOUSE, Strain/Sex: CD-1/FEMALE, Route: ORAL, 3000, 10,000, 30,000 PPM IN DIET FOR 104 WK (STUDY DURATION: 104 WK), 3000, 10,000, 30,000 PPM IN DIET FOR 104 WK (STUDY DURATION: 104 WK)", "result": "inactive; negative"}, {"measurement": "carcinogen call", "setting": "Species: MOUSE, Strain/Sex: CD-1/MALE, Route: ORAL, 3000, 10,000, 30,000 PPM IN DIET FOR 104 WK (STUDY DURATION: 104 WK), 3000, 10,000, 30,000 PPM IN DIET FOR 104 WK (STUDY DURATION: 104 WK)", "result": "inactive; negative"}, {"measurement": "carcinogen call", "setting": "Species: RAT, Strain/Sex: SPRAGUE-DAWLEY/FEMALE, Route: ORAL, 0.3, 1.0, 3.0% IN DIET FOR 104 WK (STUDY DURATION: 104 WK), 0.3, 1.0, 3.0% IN DIET FOR 104 WK (STUDY DURATION: 104 WK)", "result": "inactive; negative"}, {"measurement": "carcinogen call", "setting": "Species: RAT, Strain/Sex: SPRAGUE-DAWLEY/MALE, Route: ORAL, 0.3, 1.0, 3.0% IN DIET FOR 104 WK (STUDY DURATION: 104 WK), 0.3, 1.0, 3.0% IN DIET FOR 104 WK (STUDY DURATION: 104 WK)", "result": "inactive; negative"}]}]}
